Experiments:
glioblastoma = experiment: Vascular biomarker analysis of control and Avastin-treated glioblastoma (3D tumor vasculature, tumor wrap); assay type: in vivo
Source text: X-ray images of a control tumor and an Avastin-treated tumor are shown side by side in FIG. 43. […] FIGS. 46 and 47 show exemplary tumor wraps of the same control and Avastin-treated tumors. FIGS. 48-52 exemplify visualization of the distribution of microvascular density within two exemplary tumors.
In some embodiments, the assessment of vascular hot spots and/or necrotic regions within a diseased tissue, for example a malignant tumor, may be used in the evaluation of a treatment targeting said diseased tissue, for example the administration of a chemotherapeutic agent. FIG. 54 exemplify a comparison of vascular hot spots and necrotic regions in glioblastoma treated with Avastin to vascular hot spots and necrotic regions in non-treated control glioblastoma. […] Assessment of an exemplary vascular density related biomarker, total vessel density (number of vessels per given volume), in Avastin-treated glioblastoma and untreated controls is depicted in FIG. 56. Assessment of another exemplary vascular density related biomarker, mean vessel density (average number of vessels over a number of volume units, for example defined by the boundary of a tumor), in Avastin-treated glioblastoma and untreated controls as depicted in FIG. 57. Assessment of an exemplary vascular density related biomarker, total vessel volume density (number of voxels belonging to a vessel within a given volume), in Avastin-treated glioblastoma and untreated controls is depicted in FIG. 58. Assessment of another exemplary vascular density related biomarker, mean vessel volume density (average number of voxels belonging to a vessel within a number of volume units, for example defined by the boundary of a tumor), in Avastin-treated glioblastoma and untreated controls as depicted in FIG. 59. In some embodiments, a boundary of a tissue, for example a tumor, are determined based on vascular imaging and modeling data, and a subsequent assessment qualifying a voxel within those boundaries is carried out. In some embodiments, a biomarker is […] in a plurality of such qualified voxels. For example, the boundary of a solid tumor may be determined based on the abnormal vasculature associated with malignant tissue, for example by “tumor-wrap”, and vascular density related biomarkers may be assessed for tissue within that boundary.
It should be appreciated, that the biomarkers related to by some aspects of this invention may be useful in a wide variety of diagnostic and therapeutic modalities and applications, some non-limiting examples of which are described herein.

[1] = test system: mouse tumor model generated using H1975 cells; experiment: Hot spot analysis in mouse tumor model; assay type: in vivo
Source text: Applicant has appreciated that vascular information (e.g., based on vascular geometry) within a region (e.g., a wrapped 3D region) may be analyzed to identify one or more hot spots. For example, a threshold number of poker chips may be identified as a threshold for a hot spot within a unit volume of a tumor. The relative amount (e.g., percentage) of tumor vasculature that is represented by a hot spot then may be determined. This value may be used to evaluate the tumor (e.g., for diagnostic or prognostic purposes) or to evaluate a tumor response to therapy. In a non-limiting example, a hot spot may be defined as a cubic millimeter that contains more than 10,000 poker chips. FIGS. 73 and 74 illustrate experiments where the percentage represented by the hot spot regions (e.g., as a percentage of unit volumes within a tumor volume that are above the threshold for defining a hotspot) are evaluated in a mouse tumor model in response to Avastin treatment. The mouse tumor model was generated using H1975 cells. Mice were compared with and without Avastin treatment (Avastin provided for 10 days as described herein). The tumors analyzed were approximately 100 cubic mm in size. […]

vasculature = experiment: Morphological features as a function of vessel diameter, control vs treated vasculature; assay type: in vivo; conditions: control vasculature vs vasculature treated with Avastin, FIGS. 30-32
Source text: As discussed above, computed morphological features may be used to compare the same features obtained from healthy tissue, or to compare the same features extracted from a bounded vasculature at different points in time to, for example, assess the effectiveness of treatment. FIGS. 30-33 illustrate examples of using various morphological properties described herein to, for example, quantify diseased vasculature and/or assess the effectiveness of a particular treatment. FIGS. 30-32 illustrate plots of a respective morphological feature as a function of vessel diameter for a control vasculature and for a vasculature treated with Avastin. […] Moreover, the impact may differ depending on the vessel size. That is, differences between the control and treated plots may be larger or smaller depending on the diameter of the vessel. Applicant has appreciated that the differences may be quantified to define a range wherein differences are different enough to help determine which vessel diameters are being targeted and impacted by the treatment.

[2] = test system: human non-small cell lung tumor cell line (A549) subcutaneous tumors; experiment: Xenotopic tumor model, response to antiangiogenic therapy (vascular casts, micro CT); assay type: in vivo, mouse
Experimental: A tumor model can be generated by inoculating human non-small cell lung tumor cell line (A549 from ATCC, Inc.) subcutaneously in immunodeficient mice (SCID). SCID male mice (6-8 weeks old from Charles River Inc.) are inoculated subcutaneously in the lower back with a suspension of 1×10^6 human lung tumor cells (A549) in 0.2 ml of PBS. All mice are fed normal chow diet throughout the duration of the experiment. All mice weights are measured throughout the experiment. Tumor size is measured with calipers twice-a-week and tumor volume is calculated using the formula Length^2×Width×0.52. All mice are randomized into two treatment groups (approximately 10 mice per group) when the median tumor volume reaches approximately 500 mm^3. The treatment groups can be treated according to the following schedule using intraperitoneal (i.p.) administration of either a control composition or an anti-angiogenic compound. For example, different levels of an anti-angiogenic compound can be used and the results compared to a control group that is not treated with an anti-angiogenic compound (e.g., Avastin® available from Genentech, South San Francisco, Calif.). For example:
Group 1: Control group—treated with saline/PBS twice a week.
Group 2: High Avastin®—treated with Avastin® at 5 mg/kg/i.p. twice a week.
Group 3: Low Avastin®—treated with Avastin® at 0.5 mg/kg/i.p. twice a week.
Experiments are terminated 1.5 weeks after initial treatment.
At the end-point, all mice are anesthetized and systemically perfused with a casting agent.
In some embodiments, a tissue, for example, a tumor tissue, is perfused with a contrast and/or a casting agent prior to image acquisition. Methods of tissue perfusion are well known to those of skill in the art. In some embodiments, a tissue is perfused with Mercox, a casting agent available, for example, from Ladd Research, Williston, Vt. Mercox perfusion can be performed, as follows. An initial anticoagulation step for each animal is performed using an i.v. injection of heparin (10,000 U/ml, 0.3 cc/mouse). After 30 minutes, the animals are anesthetized. Each animal's heart is cannulated and the animal perfused with warm physiological saline at physiological pressure (with an open vein draining the organ or with an open vena cava). Perfusion is continued until the organ or animal is clear of blood. Mercox monomer is filtered through a 0.5 μm filter and a casting resin is prepared by mixing 8 ml Mercox, 2 ml methylmethacrylate, and 0.3 ml catalyst. The resin is infused through the same cannula until the onset of polymerization (the resin changes color to brown and emits heat, ˜10 min). The organ or animal is carefully immersed in a 60° C. water bath for 2 hours (or overnight in a sealed container). The tissue is removed by incubating in alternating rinses of 5% KOH and distilled water (for example in a 60° C. water bath sealed) followed by thorough rinsing in distilled water. The cast is cleaned in 5% formic acid for 15 minutes and rinsed thoroughly in distilled water and frozen in distilled water. The resulting block of ice is lyophilized (care should be taken not to melt the ice, the ice should […] as it lyophilizes). The resulting cast can be analyzed to identify one or more structural characteristics of interest.
Xenotopic mouse models obtained as described in Example 7 can be treated with either a control solution of saline/PBS or an anti-angiogenic preparation of Avastin® at 0.5 mg/kg/i.p. as described above. At the end-point, vascular casts can be prepared as described in Example 8 above and may be analyzed for two treated mice (both treated with Avastin® at 0.5 mg/kg/i.p.) and one control mouse. However, other experimental configurations may be used. The resulting vascular casts can be scanned using a micro CT-scanner and exemplary results of the structural analysis are shown in FIGS. 44-47. […] The blood vessel population distributions were consistent for both treated animals. […]

[3] = Avastin-treated vs non-treated control glioblastoma, FIG. 55
[4] = 0.5 mg/kg/i.p., treated vs untreated tumors

With bevacizumab [Avastin] the hot spot density (glioblastoma; [3]) was “significant decrease”, the necrotic region volume (glioblastoma; [3]) was “significant increase” and the vessel volume density (glioblastoma; [3]) was “significant decrease”. The “frequency of microvascular density bins” value (glioblastoma; control vs treated tumor, FIG. 53) was “different microvascular density bin distribution”, the “mean percentage of hot spot regions” value ([1]; Avastin provided for 10 days, over the time of the experiment, FIG. 73) was “decrease” and the “percentage of hot spot regions after treatment” value ([1]; change of about 40% to about 10%, Avastin for 10 days, hot spot = cubic millimeter with more than 10,000 poker chips) was “about 10%”. The “morphological features as a function of vessel diameter” value (vasculature) was “there are differences”, the mean tumor volumes ([2]; 0.5 mg/kg/i.p., treated vs control group at the end of the experiment) was “did not differ significantly” and the blood vessel density ([2]; 0.5 mg/kg/i.p., treated vs control, FIGS. 54-67) was “differences in blood vessel density were detected”. The “percentage of middle diameter sized vessels” value [2, 4] was “higher percentage”, the “small diameter sized vessels, less than untreated tumors” value [2, 4] was 20% and the “vessel population ratio between large and middle size vessels” value ([2]; large approximately 147-161 μm, middle approximately 33-77 μm, after treatment) was “decreased”. For the same substance, the “vessel population ratio between small and middle size vessels” value ([2]; small approximately 21-35 μm, middle approximately 35-49 μm, after inhibitor treatment) was “decreased”.

— patent US10235756B2, “Vascular analysis methods and apparatus” (Bio-Tree Systems, Inc., priority 2009, dated 2019)
